The subject of test [1] is human CD34+ 38- 90+ HSC enriched population. Put plainly: cell cycle status of HSCs (Ki67 / Hoechst), flow cytometry. The class given is cell-based. The note with it: for G0 quiescent phase of untransduced and transduced HSCs: early time period of ex vivo culture. The method, then:
Human MPB derived CD34^+ cells were cultured and transduced with lentivirus (LV) or retrovirus (RV) for the indicated time points. Representative Immunofluorescence images of sorted human CD34^+ 38^− 90^+ population treated with or without p38i for 72 hours stained with anti-γH2AX and 53BP1 (Panel A) and quantification of γ-H2AX (Panel B) and 53BP1 (Panel C) MFI/cell. Panel D: Representative histogram plot from flow cytometric analysis of CD34^+ 38^− 90^+ HSC enriched cells stained for γ-H2AX with or without p38 inhibitor (p38i) and quantification of fold change in mean fluorescence intensity (MFI) of γ-H2AX in HSCs (Panel E) and percent GH2AX^+ cells (Panel F) at indicated time period. Percentage shown in histograms are cells positive for γH2AX and the numbers below is mean fluorescent intensity (MFI) (n=5 independent experiments). FACS plot representing HSCs in G0 (Quiescent), G1, and S-G2-M phase of cell cycle with or without p38i (Panel G) and quantification (Panel H) of HSC enriched population at different cell cycle phase at indicated time of ex vivo culture. Percentage of (±SEM) Ki67^− (G0) and Ki67^+ (G1-S-G2-M) HSCs is depicted on the y-axis. (n=4 independent experiments for 24 h LV and n=5 independent experiments for 42 h LV and 72 h RV)). Statistics: paired Student's t test, *p<0.05, **p<0.01, ***p<0.001.
Human MPB derived CD34^+ cells were cultured and transduced as described in FIG. 17. Panel A: Quantification of γ-H2AX^+ CD34^+ 38^− 90^+ cells at 24, 42, & 72 hours. n=5-8 independent experiments/condition). Panel B: Quantification of immunofluorescence analysis for γ-H2AX (left) and 53BP1 (right) MFI per sorted human CD34^+ 38^− 90^+ cell with or without p38i for 42 hours. Panel C: Quantitative plot representing CD34^+ 38^− 90^+ cells in G0-G1, and S-G2-M phase of cell cycle with or without p38i at 42 hours of ex vivo culture and lentivirus (LV) transduction. (n=6 independent experiments/condition). Statistics: paired Student's t test, *p<0.05, **p<0.01, ***p<0.001. Statistics: Student's t test, *p<0.05, **p<0.01, ***p<[…].
Ki67, a nuclear antigen associated with cell proliferation, was used to determine cell cycle status via flow cytometry; negative stains were considered to represent quiescent HSCs.

The subject of test [2] is human CD33+ myeloid, CD19+ B-lymphoid and CD34+ HSPC progeny. Put plainly: multi-lineage reconstitution (myeloid skewing) in 1T NSG mice 24 weeks post transplantation. It is filed as in vivo. The method, then:
FIG. 2. A preclinical model for studying adult human HSC ex vivo manipulation and gene transfer and its effect on LTRP. (Panel A) Freshly isolated or thawed mobilized peripheral blood (MPB) derived CD34+ cells were utilized for the study. Two different protocols were utilized for the study where lentivirus (LV) or γ-Retrovirus (RV) mediated gene transfer was performed at indicated time points. 0 h, 18-24 h, 36-42 h, and 72-96 h indicates the total amount of time where cells were exposed in the ex vivo culture after CD34 isolation before injection into NSG mice. (Panel B) After indicated time in culture and transduction, 1 million CD34+ starting equivalent cells were transplanted per NSG mouse after TBI intravenously (primary transplant=1T). Primary human engraftment and multi-lineage reconstitution was analyzed in mice at indicated time periods after bone marrow harvest at 6 and 12 weeks (wks) from left and right femurs, and after sacrifice at 24 wks, from all bones. A portion of cells were analyzed for FACS and the rest were depleted of mouse CD45+ cells and transplanted one to one, into secondary mice (secondary transplant=2T).
Human MPB derived CD34^+ cells either fresh or thawed were cultured and transduced with lentivirus (LV) or retrovirus (RV) expressing GFP for the indicated time points. Cells were harvested and phospho-p38MAPK was detected by flow cytometry. […] Data expressed as mean±SEM from 5 independent experiments (n=12-21 mice per group). […]
Next, the multi-lineage reconstitution was analyzed at 6, 12 and 24 weeks in BM of 1T animals, both of the untransduced (GFP^−) versus transduced (GFP^+) progeny. […]

Setting [3] is: before the first HSC division (24 h).

Data on one compound can be found in US20180325947A1, “USE OF MAPK INHIBITORS TO REDUCE LOSS OF HEMATOPOIETIC STEM CELLS DURING EX VIVO CULTURE AND/OR GENETIC MANIPULATION” (Children's Hospital Medical Center, priority 2015, published 2018).

“Also recorded” adds a separate entry of the source.

Regarding `Cc1ccc(-n2nc(C(C)(C)C)cc2NC(=O)Nc2ccc(OCCN3CCOCC3)c3ccccc23)cc1` [BIRB-796, 1-[5-tert-butyl-2-(4-methylphenyl)pyrazol-3-yl]-3-[4-(2-morpholin-4-ylethoxy)naphthalen-1-yl]urea], the “effect on HSC cell cycle” value in test [1] (after 24 h, as HSC progressed through cell cycle) is reported as “lost”. For the same compound, the “proportion of HSC in the G0 quiescent phase” value in test [1] (setting [3]) is reported as “significantly increased”. Moreover, in test [1] (setting [3]), the “proportion of HSC in the S-G2-M phase” value was “decreased”. For the same compound, the “G0 quiescent phase of untransduced and transduced HSCs” value in test [1] was “maintain”; in test [1] (listed as p38i) it was “retains”. Besides, the “myeloid skewing phenotype (overall)” value in test [2] (1T mice 24 weeks post transplantation, listed as p38i) is recorded as “significantly revert this phenotype but only partially; also recorded: partially reverts”. The myeloid lineage skewing entry in test [2] (72-96 h RV group) is “some improvement”; in test [2] (HSPC transduced within the first 24 h with LV, cultures up to 72-96 h) it was “restored to levels similar to untransduced cells or 0 h controls”.
